# Measurements reported in patent US20250134855A1, “CO[…] AND METHODS OF USING SAME” (LYKOS THERAPEUTICS, INC., priority 2022, published 2025).
# Tests used:
# [1] = single 100 mg dose of MDMA (Segura 2005); cited from earlier work
# [2] = system: participants with severe PTSD; assay: MAPP1 Phase 3: CAPS-5 total severity score; type: in vivo, human; details: for CFB in CAPS-5 Total Severity Score, LS mean for treatment difference (95% CI) / CFB in CAPS-5 Total Severity Score, LS mean / CAPS-5 Total Severity Score, Mean / CAPS-5 Total Severity Score, Median / CFB in CAPS-5 Total Severity Score, Mean / CFB in CAPS-5 Total Severity Score, Median / Loss of Diagnosis, % / Non-Responder (<10-point reduction in CAPS-5 Total Severity Score), % / Remission, % / Responder (≥10-point reduction in CAPS-5 Total Severity Score), %: MAPP1, mITT; for CFB in CAPS-5 Total Severity Score, LS mean for treatment difference (95% CI): vs placebo with therapy
# Text: (§1) FIG. 36 and FIG. 37 show the time course of improvement in Clinician Administered PTSD Scale for DSM-5 (CAPS-5) total severity score versus placebo. Each show a treatment difference between MDMA and placebo after 3 medication sessions with psychological intervention. […] Between the second and third treatment sessions, the difference between the groups appeared to continue to increase in both studies. The primary efficacy measure was change from baseline in the CAPS-5 total severity score at 18 weeks, which was evaluated 2 months after the final dosing session. The CAPS-5 is a 30-item, clinician-rated scale used to assess severity of PTSD symptoms and diagnostic status according to DSM-5 criteria, as described herein. Scores on the CAPS 5 range from 0 to 80, with higher scores indicating more severe PTSD symptoms. In both studies, a secondary efficacy measure was change from baseline in Sheehan Disability Scale (SDS) mean item scores at 18 weeks. The modified SDS is a 3-item, clinician-rated scale measuring the degree of functional impairment in work, family, and social life. Scores on the SDS mean items range from 0 to 10, with higher scores indicating more functional impairment. In these studies, the efficacy assessments were administered by blinded independent raters 18 to 30 days after medication sessions 1 and 2.
# A flexible dose of MDMA hydrochloride salt (referred to as MDMA throughout) or placebo, followed by a supplemental half-dose unless contraindicated, was administered during the Treatment Period with manualized psychotherapy in three blinded monthly Experimental Sessions. This ˜12-week Treatment Period was preceded by three Preparatory Sessions. During the Treatment Period, each Experimental Session was followed by three Integrative Sessions of non-drug psychotherapy. Experimental Sessions were followed by an overnight stay. The Primary Outcome measure, the change in Clinician Administered PTSD Scale (CAPS-5), was assessed by a blinded centralized Independent Rater (IR) pool multiple times throughout the study. Three blinded manualized Experimental Sessions of psychotherapy assisted by flexible doses of MDMA·HCl or placebo were administered (see Table 28 below). Initial doses per Experimental Session include 80 mg or 120 mg MDMA compounded with mannitol and magnesium stearate or indistinguishable weight placebos comprised entirely of mannitol and magnesium stearate, followed 1.5 to 2 hours later by a supplemental half-dose (40 mg or 60 mg MDMA·HCl or placebo). Total amounts of MDMA·HCl to be administered per Experimental Session range from 80 mg to 180 mg. All drug is encapsulated with HPMC capsules.
# In the first Experimental Session, the initial dose was 80 mg MDMA·HCl or placebo. In the second and third Experimental Sessions, the initial dose may be increased to 120 mg MDMA·HCl or placebo unless contraindicated. The choice of whether to keep the dose the same or change it from the first Experimental Session was made by the therapy team the in consultation with the site physician based on observed response, tolerability to the previously administered dose, and discussion with the participant. In each Experimental Session, 1.5 to 2 hours after the initial dose is given, the participant was administered a supplemental half-dose unless contraindicated. If an AE requiring medical attention occurs between the initial and supplemental dose this was evaluated as a potential contraindication by the site physician. If a participant prefers not to take the supplemental dose, the reason was documented. Participants will not know if they have been assigned MDMA or placebo but can indicate if they want the dose to change or remain the same.
# The MDMA assisted therapy (MDMA-AT) approach is detailed in the “Manual for MDMA Assisted Therapy in the Treatment of PTSD,” published by MAPS (MDMA Treatment Manual, available at maps.org/treatment-manual). […]
# [3] = target: organic anion transporter (OAT1) (Homo sapiens, UniProt Q4U2R8); assay: Transporter inhibition, OAT1
# organic anion transporter (OAT1), sequence (Q4U2R8 whole entry): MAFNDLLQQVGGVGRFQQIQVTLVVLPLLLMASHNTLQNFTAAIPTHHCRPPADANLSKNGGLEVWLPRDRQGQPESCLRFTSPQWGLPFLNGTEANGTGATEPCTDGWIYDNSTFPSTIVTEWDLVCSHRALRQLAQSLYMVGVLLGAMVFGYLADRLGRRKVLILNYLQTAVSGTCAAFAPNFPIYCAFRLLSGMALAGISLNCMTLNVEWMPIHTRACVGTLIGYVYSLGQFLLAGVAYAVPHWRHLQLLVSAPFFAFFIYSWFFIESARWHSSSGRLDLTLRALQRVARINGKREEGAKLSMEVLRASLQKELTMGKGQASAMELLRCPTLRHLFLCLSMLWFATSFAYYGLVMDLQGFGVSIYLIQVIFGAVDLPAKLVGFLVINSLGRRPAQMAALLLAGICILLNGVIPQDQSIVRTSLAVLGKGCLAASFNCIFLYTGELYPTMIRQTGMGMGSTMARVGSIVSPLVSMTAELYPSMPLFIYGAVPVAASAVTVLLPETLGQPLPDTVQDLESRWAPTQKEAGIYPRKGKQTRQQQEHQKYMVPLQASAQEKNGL
# [4] = system: participants with severe PTSD; assay: MAPP1 Phase 3: Sheehan Disability Scale (SDS); type: in vivo, human
# Text: as §1
# MAPP1 was a Phase 3 randomized, placebo-controlled, 2-arm, double-blind, multi-site study conducted to investigate the efficacy and safety of MDMA-AT in participants with severe PTSD. This study is also discussed in Mitchell et. al., Nature Medicine 2021, 27, 1025-1033. This study included 3 experimental sessions of therapy combined with either MDMA·HCl or placebo. During Experimental Session 1, participants received a split dose of 120 mg (80 mg+40 mg).
# Participants received an escalated split dose of 180 mg during Experimental Sessions 2 and 3 unless there were tolerability issues or the participant declined. The primary outcome measure, the CAPS-5, evaluated changes in PTSD symptom severity and the secondary outcome measure, the SDS, evaluated changes in functional impairment. Both measures were assessed by a blinded centralized language-specific IR pool.
# The de jure estimand of treatment efficacy was used to determine the effect of MDMA-AT on SDS total score.
# [5] = de jure estimand, Baseline CAPS-5 T1 (Visit 3)
# [6] = de jure estimand, CAPS-5 T2 (Visit 8)
# [7] = de jure estimand, CAPS-5 T3 (Visit 13)
# [8] = de jure estimand, CAPS-5 T4 (Visit 19)
# [9] = de jure estimand, CFB to T2 (Visit 8)
# [10] = de jure estimand, CFB to T3 (Visit 13)
# [11] = de jure estimand, CFB to T4 (Visit 19)
# [12] = T4 (primary) endpoint (Visit 19)
# [13] = MAPP1, mITT, Baseline (Visit 3)
# [14] = MAPP1, mITT, Baseline to Visit 19
# [15] = MAPP1, mITT, Visit 19 (Primary Endpoint)
# [16] = end of treatment, 42 patients (study not given)
smiles,measurement,setting,value
"CNC(C)Cc1ccc2c(c1)OCO2 (stereo not drawn) [MDMA, 3,4-methylenedioxymethamphetamine]",increase of AUC0-8 hr of paroxetine (20 mg),[1],3 fold
same,increase of Cmax of paroxetine (20 mg),[1],2.5 fold
same,onset of treatment efficacy (CAPS-5 versus placebo),"[2]; FIG. 36 and FIG. 37, both studies",after the second session
same,"CFB in CAPS-5 Total Severity Score, LS mean for treatment difference (95% CI)","[2]; MMRM, T2 (Visit 8)","−3.69 (−7.93, 0.54)"
same,"CFB in CAPS-5 Total Severity Score, LS mean for treatment difference (95% CI)","[2]; MMRM, T3 (Visit 13)","−8.41 (−13.53, −3.29)"
same,"CFB in CAPS-5 Total Severity Score, LS mean for treatment difference (95% CI)","[2]; MMRM, T4 (Visit 19)","−11.86 (−17.41, −6.32)"
same,"CFB in CAPS-5 Total Severity Score, LS mean","[2]; de jure estimand, MMRM, CFB to T2 (Visit 8)",−10.40
same,"CFB in CAPS-5 Total Severity Score, LS mean","[2]; de jure estimand, MMRM, CFB to T3 (Visit 13)",−17.83
same,"CFB in CAPS-5 Total Severity Score, LS mean","[2]; de jure estimand, MMRM, CFB to T4 (Visit 19)",−24.50
same,"CAPS-5 Total Severity Score, Mean",[2]; [5],44.0
same,"CAPS-5 Total Severity Score, Median",[2]; [5],43.5
same,"CAPS-5 Total Severity Score, Mean",[2]; [6],33.7
same,"CAPS-5 Total Severity Score, Median",[2]; [6],34.5
same,"CAPS-5 Total Severity Score, Mean",[2]; [7],26.2
same,"CAPS-5 Total Severity Score, Median",[2]; [7],28.0
same,"CAPS-5 Total Severity Score, Mean",[2]; [8],19.5
same,"CAPS-5 Total Severity Score, Median",[2]; [8],18.5
same,"CFB in CAPS-5 Total Severity Score, Mean",[2]; [9],−10.3
same,"CFB in CAPS-5 Total Severity Score, Median",[2]; [9],−9.0
same,"CFB in CAPS-5 Total Severity Score, Mean",[2]; [10],−17.7
same,"CFB in CAPS-5 Total Severity Score, Median",[2]; [10],−17.5
same,"CFB in CAPS-5 Total Severity Score, Mean",[2]; [11],−24.4
same,"CFB in CAPS-5 Total Severity Score, Median",[2]; [11],−25.0
same,"Loss of Diagnosis, %",[2]; T2 endpoint (Visit 8),(23.9) %
same,"Non-Responder (<10-point reduction in CAPS-5 Total Severity Score), %",[2]; T2 endpoint (Visit 8),(54.3) %
same,"Remission, %",[2]; T2 endpoint (Visit 8),(8.7) %
same,"Responder (≥10-point reduction in CAPS-5 Total Severity Score), %",[2]; T2 endpoint (Visit 8),(45.7) %
same,"Loss of Diagnosis, %",[2]; T3 endpoint (Visit 13),(57.1) %
same,"Non-Responder (<10-point reduction in CAPS-5 Total Severity Score), %",[2]; T3 endpoint (Visit 13),(26.2) %
same,"Remission, %",[2]; T3 endpoint (Visit 13),(11.9) %
same,"Responder (≥10-point reduction in CAPS-5 Total Severity Score), %",[2]; T3 endpoint (Visit 13),(73.8) %
same,"Loss of Diagnosis, %",[2]; [12],(66.7) %
same,"Non-Responder (<10-point reduction in CAPS-5 Total Severity Score), %",[2]; [12],(11.9) %
same,"Remission, %",[2]; [12],(33.3) %
same,"Responder (≥10-point reduction in CAPS-5 Total Severity Score), %",[2]; [12],(88.1) %
same,change from Baseline to Visit 19 in CAPS-5 total severity scores,"[2]; MAPP1, MMRM, de jure estimand, mITT",−24.50
same,no longer met PTSD diagnostic criteria,"[2]; MAPP1, Visit 19",66.7%
same,remission (CAPS-5 ≤11 and no longer meeting PTSD diagnostic criteria),"[2]; MAPP1, Visit 19",33.3%
same,responders (≥10-point reduction in CAPS-5 total severity score),"[2]; MAPP1, Visit 19",88.1%
same,inhibition of OAT1,[3],not an inhibitor
same,"SDS Total Score CFB, LSMean","[4]; MAPP1, mITT, MMRM, Visit 19",−3.15
same,"SDS Total Score CFB, LSMean for Treatment Difference","[4]; MAPP1, mITT, MMRM, vs placebo with therapy, Visit 19",−1.36
same,"SDS Total Score, Mean",[4]; [13],6.8
same,"SDS Total Score, Median",[4]; [13],6.8
same,"SDS Total Score CFB, Mean",[4]; [14],−3.1
same,"SDS Total Score CFB, Median",[4]; [14],−2.5
same,"SDS Total Score, Mean","[4]; MAPP1, mITT, Visit 8",5.0
same,"SDS Total Score, Median","[4]; MAPP1, mITT, Visit 8",5.0
same,"SDS Total Score, Mean","[4]; MAPP1, mITT, Visit 13",4.1
same,"SDS Total Score, Median","[4]; MAPP1, mITT, Visit 13",4.7
same,"SDS Total Score, Mean",[4]; [15],3.8
same,"SDS Total Score, Median",[4]; [15],3.4
same,reduction in SDS total scores,"[4]; MAPP1, MMRM, de jure estimand",−3.15
same,SDS Remission (SDS mean item score < 3),[4]; [16],(42.9) %
same,"SDS Remission (SDS mean item score < 3), n",[4]; [16],18
same,SDS Responder (4 point or greater reduction from baseline SDS mean item score),[4]; [16],(38.1) %
same,"SDS Responder (4 point or greater reduction from baseline SDS mean item score), n",[4]; [16],16
